One may read the IC50 as the concentration at which inhibition is half-maximal. Low readings indicate higher potency, high ones lower potency.

Assay [1] addresses D(2) dopamine receptor (Rattus norvegicus, UniProt P61169).
For assay [2], the species on record is Rattus norvegicus. The assay can be described thus: Effect on cAMP synthesis in rat striatal membranes as increase above basal value at a concentration of 10 uM. It is filed as functional. To be noted: Striatum, Membrane.
In assay [3] the target is D(1A) dopamine receptor (Rattus norvegicus, UniProt P18901).
For assay [4], the species on record is Rattus norvegicus. Nature of the assay: Effect on cAMP synthesis in rat striatal membranes as increase above basal value at a concentration of 10 uM in the presence of 1 uM of SCH 23390. The class given is functional. The conditions noted are these: Striatum, Membrane.
For assay [5], the species on record is Rattus norvegicus. Nature of the assay: Effect on cAMP synthesis in rat striatal membranes as increase above basal value at a concentration of 10 uM; NS= no synthesis detected. The conditions noted are these: Striatum, Membrane. The class given is functional.
Assay [6] deals with D(1A) dopamine receptor (Homo sapiens, UniProt P21728). Nature of the assay: Affinity towards Dopamine receptor D1.
For assay [7], the target named is D(2) dopamine receptor (Homo sapiens, UniProt P14416). The assay can be described thus: In vitro receptor binding affinity against Dopamine receptor D2.

Structures are written as SMILES. The source made the active and inactive calls. No cut-off for these calls is given here.

Sequence of D(2) dopamine receptor (Rattus norvegicus, UniProt P61169) (P61169 whole entry): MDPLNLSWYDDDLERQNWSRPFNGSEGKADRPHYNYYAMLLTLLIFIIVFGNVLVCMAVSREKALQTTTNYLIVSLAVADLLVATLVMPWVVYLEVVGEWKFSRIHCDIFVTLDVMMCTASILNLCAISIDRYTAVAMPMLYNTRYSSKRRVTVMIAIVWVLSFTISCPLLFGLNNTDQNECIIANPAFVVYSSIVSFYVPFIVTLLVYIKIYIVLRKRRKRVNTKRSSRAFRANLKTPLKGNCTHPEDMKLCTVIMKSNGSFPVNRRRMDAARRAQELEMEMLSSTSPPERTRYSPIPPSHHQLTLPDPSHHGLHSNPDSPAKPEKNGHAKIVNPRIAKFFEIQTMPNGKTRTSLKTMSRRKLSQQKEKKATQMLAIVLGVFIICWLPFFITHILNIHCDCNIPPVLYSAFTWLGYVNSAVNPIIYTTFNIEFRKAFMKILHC
Sequence of D(1A) dopamine receptor (Rattus norvegicus, UniProt P18901) (P18901 whole entry): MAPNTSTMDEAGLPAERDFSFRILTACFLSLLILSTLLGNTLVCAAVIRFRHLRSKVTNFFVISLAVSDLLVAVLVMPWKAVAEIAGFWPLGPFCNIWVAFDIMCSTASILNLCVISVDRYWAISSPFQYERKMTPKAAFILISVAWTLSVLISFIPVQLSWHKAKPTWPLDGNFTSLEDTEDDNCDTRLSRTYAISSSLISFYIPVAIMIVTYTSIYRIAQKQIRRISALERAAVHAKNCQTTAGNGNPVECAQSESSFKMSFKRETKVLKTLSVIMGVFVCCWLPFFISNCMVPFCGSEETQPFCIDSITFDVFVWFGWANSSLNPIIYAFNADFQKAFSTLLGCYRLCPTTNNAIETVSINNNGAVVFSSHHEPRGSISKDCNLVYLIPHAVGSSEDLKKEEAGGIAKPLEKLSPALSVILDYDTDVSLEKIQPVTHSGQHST
Sequence of D(2) dopamine receptor (Homo sapiens, UniProt P14416) (P14416 whole entry): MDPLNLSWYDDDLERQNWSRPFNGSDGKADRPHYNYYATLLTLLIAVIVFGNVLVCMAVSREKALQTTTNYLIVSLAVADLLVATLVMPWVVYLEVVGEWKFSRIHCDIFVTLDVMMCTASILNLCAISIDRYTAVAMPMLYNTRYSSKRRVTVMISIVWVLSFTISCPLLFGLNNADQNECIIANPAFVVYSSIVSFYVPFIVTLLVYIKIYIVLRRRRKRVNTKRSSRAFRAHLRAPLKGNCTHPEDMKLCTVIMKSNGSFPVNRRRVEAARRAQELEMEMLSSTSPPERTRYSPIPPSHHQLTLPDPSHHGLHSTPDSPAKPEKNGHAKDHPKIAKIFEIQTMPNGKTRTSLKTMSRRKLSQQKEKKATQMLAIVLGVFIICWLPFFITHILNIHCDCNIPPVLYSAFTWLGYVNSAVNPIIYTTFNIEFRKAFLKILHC
Sequence of D(1A) dopamine receptor (Homo sapiens, UniProt P21728) (P21728 whole entry): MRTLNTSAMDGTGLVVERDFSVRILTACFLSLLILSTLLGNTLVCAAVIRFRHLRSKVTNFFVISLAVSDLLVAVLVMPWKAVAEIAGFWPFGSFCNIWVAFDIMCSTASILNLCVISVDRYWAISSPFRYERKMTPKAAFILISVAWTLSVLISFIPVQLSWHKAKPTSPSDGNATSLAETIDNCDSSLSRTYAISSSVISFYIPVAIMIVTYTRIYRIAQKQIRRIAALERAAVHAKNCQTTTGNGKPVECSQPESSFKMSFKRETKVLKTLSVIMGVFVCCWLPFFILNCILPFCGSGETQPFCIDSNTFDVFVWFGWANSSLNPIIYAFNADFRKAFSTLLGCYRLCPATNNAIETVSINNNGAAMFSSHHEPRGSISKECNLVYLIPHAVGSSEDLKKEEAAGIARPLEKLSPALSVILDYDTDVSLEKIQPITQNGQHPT

With `CN1Cc2ccccc2[C@@H]2c3cc(O)ccc3CC[C@H]21`, the IC50 in assay [1] turned out to be 359 nM; in assay [3] it was 115 nM. For the same compound, the Increase in assay [2] worked out at 8%.

`Oc1cccc2c1CC[C@H]1NCc3ccccc3[C@H]21`: the concentration for half-maximal inhibition (IC50) in assay [1] worked out at 532 nM; in assay [3], 5550 nM.

Regarding `Oc1cc2c(cc1O)[C@H]1c3ccccc3CN[C@@H]1CC2`, the results for the Increase in assay [2] and in assay [4] were 103% and 1%, respectively.

For the compound `Oc1cccc2c1CC[C@H]1NCc3ccccc3[C@@H]21`, the IC50 in assay [1] came to 2000 nM; in assay [3], 2900 nM. In addition, the Increase entry in assay [5] was “inactive”.

As to `NCCc1ccc(O)c(O)c1`, the Increase in assay [2] was 100%.

For `CCCN1Cc2ccccc2[C@@H]2c3cc(O)ccc3CC[C@H]21`, the figures for the IC50 in assay [1] and in assay [3] were 210 nM and 529 nM, respectively.

As to `NC1CCc2cc(O)c(O)cc2[C@H]1c1ccccc1` (some centres not stated), the IC50 in assay [6] and in assay [7] was > 1000 nM each time.

As to `Oc1ccc2c(c1)[C@H]1c3ccccc3CN[C@@H]1CC2`, the concentration for half-maximal inhibition (IC50) in assay [1] stood at 631 nM; in assay [3], 102 nM. This compound came in with an Increase in assay [2] of 15%.

In the case of `CN1Cc2ccccc2[C@@H]2c3ccc(O)c(O)c3CC[C@H]21`, the IC50 came out at 121 nM in assay [1] and 955 nM in assay [3]. Moreover, the Increase result in assay [5] is “inactive”.

Turning to `Oc1ccc2c(c1)[C@@H]1c3ccccc3CN[C@@H]1CC2`, the IC50 in assay [1] stood at 15500 nM; in assay [3], 16700 nM. Moreover, in assay [5], the Increase result is “inactive”.

As to `CN1Cc2ccccc2[C@@H]2c3cc(O)c(Br)cc3CC[C@H]21`, the IC50 in assay [1] is 3000 nM; in assay [3] it was 322 nM. Moreover, the Increase entry in assay [5] was “inactive”.
